Test results from ChEMBL document CHEMBL5214920, “Emerging impact of triazoles as anti-tubercular agent” (Eur J Med Chem, 2022).
≈ marks a conversion by molar mass, not a printed value.

What follows are molecules tested on Mycobacterium tuberculosis (assay: Antitubercular activity against Mycobacterium tuberculosis H37Rv assessed as bacterial growth inhibition measured after 24 hrs by agar micro dilution method). Settings: not given.
Format: functional
For COc1ccccc1C1NN=C2C1Sc1nc(-c3ccc(C)cc3)nn12 (stereo not drawn), the MIC was 3.12 µg/mL (≈ 8.6 µM). Molecule Cc1ccc(-c2nc3n(n2)C2=NOC(c4cccc([N+](=O)[O-])c4)C2S3)cc1 (stereo not drawn) has an MIC of 3.12 µg/mL (≈ 8.24 µM). In the case of Cc1ccc(-c2nc3n(n2)C2=NNC(c4ccc([N+](=O)[O-])cc4)C2S3)cc1 (stereo not drawn), the MIC is reported as 3.12 µg/mL (≈ 8.26 µM). Cc1ccc(-c2nc3n(n2)C2=NOC(c4ccccc4)C2S3)cc1 (stereo not drawn) showed an MIC of 3.12 µg/mL (≈ 9.34 µM). Cc1ccc(-c2nc3n(n2)C2=NOC(c4ccc(N(C)C)cc4)C2S3)cc1 (stereo not drawn) was tested, and the MIC was 3.12 µg/mL (≈ 8.28 µM). Cc1ccc(-c2nc3n(n2)C2=NOC(c4ccc([N+](=O)[O-])cc4)C2S3)cc1 (stereo not drawn) showed an MIC of 3.12 µg/mL (≈ 8.24 µM). Molecule Cc1ccc(-c2nc3n(n2)C2=NNC(c4ccc(Cl)cc4)C2S3)cc1 (stereo not drawn) has an MIC of 3.12 µg/mL (≈ 8.49 µM). Work on Cc1ccc(-c2nc3n(n2)C2=NNC(c4ccc(N(C)C)cc4)C2S3)cc1 (stereo not drawn) yielded an MIC of 3.12 µg/mL (≈ 8.3 µM). Molecule COc1ccc(C2NN=C3C2Sc2nc(-c4ccc(C)cc4)nn23)cc1 (stereo not drawn) has an MIC of 3.12 µg/mL (≈ 8.6 µM). For Cc1ccc(-c2nc3n(n2)C2=NOC(c4ccc(Cl)cc4)C2S3)cc1 (stereo not drawn), the MIC was 3.12 µg/mL (≈ 8.47 µM). Cc1ccc(-c2nc3n(n2)C2=NOC(c4ccc(Br)cc4)C2S3)cc1 (stereo not drawn) was tested, and the MIC was 3.12 µg/mL (≈ 7.56 µM). In the case of Cc1ccc(-c2nc3n(n2)C2=NNC(c4ccc(Br)cc4)C2S3)cc1 (stereo not drawn), the MIC is reported as 3.12 µg/mL (≈ 7.58 µM). COc1ccc(C2ON=C3C2Sc2nc(-c4ccc(C)cc4)nn23)cc1 (stereo not drawn) was tested, and the MIC was 3.12 µg/mL (≈ 8.58 µM). Molecule Cc1ccc(-c2nc3n(n2)C2=NNC(c4cccc([N+](=O)[O-])c4)C2S3)cc1 (stereo not drawn) has an MIC of 3.12 µg/mL (≈ 8.26 µM). Work on COc1ccccc1C1ON=C2C1Sc1nc(-c3ccc(C)cc3)nn12 (stereo not drawn) yielded an MIC of 3.12 µg/mL (≈ 8.58 µM).

The molecules below were run on Mycobacterium tuberculosis (assay: Antitubercular activity against Mycobacterium tuberculosis H37Rv assessed as bacterial growth inhibition measured after 7 days by REMA method). Settings: 168 h, time 7 day.
Format: functional
Molecule O=c1nc(NCc2cn(-c3ccc(Cl)cc3)nn2)sc2c(Cl)cc(C(F)(F)F)cc12 has an MIC of 0.03 µg/mL (≈ 0.0635 µM). Molecule O=c1nc(NCc2cn(-c3ccc(Cl)cc3)nn2)sc2c(Cl)cc(Cl)cc12 has an MIC of 0.03 µg/mL (≈ 0.0684 µM). In the case of O=c1nc(NCc2cn(-c3ccc(Cl)cc3)nn2)sc2c(Cl)cc(Br)cc12, the MIC is reported as 0.03 µg/mL (≈ 0.0621 µM). O=c1nc(NCc2cn(-c3ccc(Cl)cc3)nn2)sc2c(Cl)cc(F)cc12 was tested, and the MIC was 0.03 µg/mL (≈ 0.071 µM). Molecule Cc1cc(=O)oc2cc(OCc3cn(CCCCCCCCn4cc(COc5cc6oc(=O)cc(C)c6cc5Cl)nn4)nn3)c(Cl)cc12 has an MIC of 1.56 µg/mL (≈ 2.25 µM). For Cc1cc(=O)oc2cc(OCc3cn(CCCCCCCCCCn4cc(COc5cc6oc(=O)cc(C)c6cc5Cl)nn4)nn3)c(Cl)cc12, the MIC was 1.56 µg/mL (≈ 2.16 µM). Molecule COc1ccc(-n2nc(C)cc2Cn2cncn2)cc1 has an MIC of 100 µg/mL (≈ 371 µM).

These molecules were tested on Mycobacterium tuberculosis (assay: Antitubercular activity against Mycobacterium tuberculosis H37Rv assessed as bacterial growth inhibition measured after 7 days by MABA method). Settings: 168 h, time 7 day.
Format: functional
Molecule CCCCCc1ccc(-c2cn(CC(O)COc3ccc4c(c3)OC3(CCCCC3)CC4=O)nn2)cc1 (stereo not drawn) has an MIC of 0.78 µg/mL (≈ 1.55 µM). In the case of Cc1ccc2c(c1)C=CC1(CCc3c(nnn3-c3ccccc3)C1)O2 (stereo not drawn), the MIC is reported as 1.56 µg/mL (≈ 4.74 µM). For COc1ccc(-n2nnc3c2CCC2(C=Cc4cc(Cl)ccc4O2)C3)cc1 (stereo not drawn), the MIC was 1.56 µg/mL (≈ 4.11 µM). With COc1ccc(-n2nnc3c2CCC2(C=Cc4cc(C)ccc4O2)C3)cc1 (stereo not drawn) the MIC was 1.56 µg/mL (≈ 4.34 µM).

These molecules were tested on Mycobacterium tuberculosis (assay: Antitubercular activity against Mycobacterium tuberculosis H37Rv ATCC 27294 assessed as bacterial growth inhibition measured after 7 days by MABA method). Settings: H37Rv ATCC 27294, 168 h, time 7 day.
Format: functional
Molecule O=C(Cn1cc(COc2ccc([N+](=O)[O-])cc2)nn1)Nc1ccc(Cl)cc1 has an MIC of over 25 µg/mL. Work on O=C(Cn1cc(COc2ccccc2)nn1)Nc1ccccc1Cl yielded an MIC of over 25 µg/mL. In the case of Cc1ccccc1NC(=O)Cn1cc(COc2ccc([N+](=O)[O-])cc2)nn1, the MIC is reported as over 25 µg/mL. Cc1ccc(NC(=O)Cn2cc(COc3ccc([N+](=O)[O-])cc3)nn2)cc1 was tested, and the MIC was over 25 µg/mL. With COc1ccc(OCc2cn(CC(=O)Nc3ccc(C)cc3)nn2)cc1 the MIC was over 25 µg/mL. For COc1ccc(OCc2cn(CC(=O)Nc3ccccc3)nn2)cc1, the MIC was over 25 µg/mL. O=C(Cn1cc(COc2ccc([N+](=O)[O-])cc2)nn1)Nc1cccc(Cl)c1 was tested, and the MIC was over 25 µg/mL. Cc1cccc(NC(=O)Cn2cc(COc3ccccc3)nn2)c1 was tested, and the MIC was over 25 µg/mL. For Cc1cccc(NC(=O)Cn2cc(COc3ccc([N+](=O)[O-])cc3)nn2)c1, the MIC was over 25 µg/mL. Work on COc1ccc(OCc2cn(CC(=O)Nc3ccc(Cl)cc3)nn2)cc1 yielded an MIC of over 25 µg/mL. O=C(Cn1cc(COc2ccccc2)nn1)Nc1ccc(Cl)cc1 was tested, and the MIC was over 25 µg/mL. COc1ccc(OCc2cn(CC(=O)Nc3ccccc3Cl)nn2)cc1 was tested, and the MIC was over 25 µg/mL. For COc1ccc(OCc2cn(CC(=O)Nc3cccc(Cl)c3)nn2)cc1, the MIC was over 25 µg/mL. With COc1ccc(OCc2cn(CC(=O)Nc3cccc(C)c3)nn2)cc1 the MIC was over 25 µg/mL. Molecule Cc1ccccc1NC(=O)Cn1cc(COc2ccccc2)nn1 has an MIC of over 25 µg/mL. O=C(c1ccccc1)C1C(c2cc3ccccc3nc2N2NNc3ccccc32)C2CCCN2C12C(=O)Nc1ccccc12 (stereo not drawn) gave an MIC of 1.13 µM. O=C(Cn1cc(COc2ccccc2)nn1)Nc1cccc(Cl)c1 was tested, and the MIC was over 25 µg/mL. With O=C(Cn1cc(COc2ccc([N+](=O)[O-])cc2)nn1)Nc1ccccc1 the MIC was over 25 µg/mL. In the case of COc1ccc(OCc2cn(CC(=O)Nc3ccccc3C)nn2)cc1, the MIC is reported as over 25 µg/mL. Molecule O=C(Cn1cc(COc2ccc([N+](=O)[O-])cc2)nn1)Nc1ccccc1Cl has an MIC of over 25 µg/mL. Cc1ccc(NC(=O)Cn2cc(COc3ccccc3)nn2)cc1 was tested, and the MIC was over 25 µg/mL.

The molecules below were run on Mycobacterium tuberculosis (assay: Antitubercular activity against Mycobacterium tuberculosis H37Rv assessed as bacterial growth inhibition measured after 5 days by MABA method). Settings: 120 h, time 5 day.
Format: functional
COc1ccc(-n2ncn(Cc3cc4ccccc4nc3Cl)c2=O)cc1 was tested, and the MIC was 0.078 µM (≈ 0.0286 µg/mL).
